Measured values published in PubChem BioAssay (NCI).
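Grown in 96-well plates, cells were treated for 48 hours with each compound at five concentrations. Insufficient inhibition: endpoint recorded as highest concentration tested. At the GI50, growth is halved. TGI: total growth inhibition.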

Legend:
Test in all cases: inhibition of tumour cell growth, NCI panel, 48 h
PC-3 prostate = test system: PC-3 prostate
COLO 205 colon = test system: COLO 205 colon
A498 renal = test system: A498 renal
HT29 colon = test system: HT29 colon
DU-145 prostate = test system: DU-145 prostate
MALME-3M melanoma = test system: MALME-3M melanoma
T-47D breast = test system: T-47D breast
NCI/ADR-RES ovarian = test system: NCI/ADR-RES ovarian
RXF 393 renal = test system: RXF 393 renal
RPMI-8226 leukemia = test system: RPMI-8226 leukemia

Row | SMILES | GI50 (PC-3 prostate) | TGI (PC-3 prostate) | GI50 (COLO 205 colon) | TGI (COLO 205 colon) | GI50 (A498 renal) | TGI (A498 renal) | GI50 (HT29 colon) | TGI (HT29 colon) | GI50 (DU-145 prostate) | TGI (DU-145 prostate) | GI50 (MALME-3M melanoma) | TGI (MALME-3M melanoma) | GI50 (T-47D breast) | TGI (T-47D breast) | GI50 (NCI/ADR-RES ovarian) | TGI (NCI/ADR-RES ovarian) | GI50 (RXF 393 renal) | TGI (RXF 393 renal) | GI50 (RPMI-8226 leukemia) | TGI (RPMI-8226 leukemia)
1 | COc1ccc(C(=O)Nc2cccc(C3CC(=O)c4c(cc(OC)c(OC)c4OC)O3)c2)cc1 (stereo not given) | 0.736 µM | 27.9 µM | 2.39 µM | 6.57 µM | 2 µM | 8.12 µM | 3.38 µM | 12.2 µM | 2.88 µM | > 100 µM | 1.56 µM | 32.6 µM | 2.13 µM | 8.1 µM | 0.629 µM | 17.6 µM | 1.64 µM | 5.48 µM | 0.726 µM | 3.51 µM
2 | CNCCNc1nc2ccccc2c2c(=O)c3cccc(OC)c3sc12 | 1.24 µM | 2.8 µM | 1.11 µM | 2.68 µM | 1.41 µM | 2.97 µM | 0.652 µM | 2.28 µM | 1.49 µM | 2.95 µM | 1.83 µM | 3.59 µM | 1.57 µM | 3.56 µM | 1.23 µM | 2.84 µM | 1.38 µM | 2.75 µM | 1.43 µM | 3.28 µM
3 | CN(C)CCn1cc(-c2ccc3c(Nc4ccc(CC(=O)Nc5cccc(F)c5)cc4)ncnc3c2)cn1 | 1.75 µM | 7.92 µM | 0.0559 µM | 3.22 µM | > 10 µM | > 10 µM | 1.29 µM | 3.16 µM | 1.67 µM | 3.51 µM | 4.7 µM | > 10 µM | 1.41 µM | 4.54 µM | > 10 µM | > 10 µM | 1.35 µM | 2.84 µM | 2.32 µM | 5.93 µM
4 | O=C(Nc1ccccc1Cl)c1ccc(NC2=C(Cl)C(=O)N(Cc3ccccc3)C2=O)cc1 | 40 µM | > 100 µM | 51.3 µM | > 100 µM | > 100 µM | > 100 µM | 44.8 µM | > 100 µM | > 100 µM | > 100 µM | 86.1 µM | > 100 µM | 62.4 µM | > 100 µM | 86.2 µM | > 100 µM | 18.4 µM | 38.2 µM | > 100 µM | > 100 µM
5 | Cn1c(=O)c(Cc2ccc(F)cc2F)cc2cnc(NC3CCOCC3)nc21 | > 25 µM | > 25 µM | > 25 µM | > 25 µM | 12.3 µM | > 25 µM | > 25 µM | > 25 µM | > 25 µM | > 25 µM | > 25 µM | > 25 µM | 9.47 µM | > 25 µM | > 15.5 µM | > 25 µM | 18.5 µM | > 25 µM | > 23.6 µM | > 25 µM
6 | Cc1ccccc1NC(=O)NC(CC(N)=O)c1ccc2c(c1)nc(-c1cccc(Oc3ccc(C(C)(C)C)cc3)c1)n2CCCN1CCCCC1C (stereo not given) | 3.94 µM | 12 µM | 1.82 µM | 3.35 µM | 5.91 µM | 13.4 µM | 1.95 µM | 3.89 µM | 5.4 µM | 13.6 µM | 1.88 µM | 3.98 µM | 2.6 µM | 10.5 µM | 28 µM | > 85.9 µM | 2.91 µM | 7.13 µM | 2.49 µM | 6.48 µM
7 | O=Cc1ccc(C(F)(F)F)cc1.[C-]#[O+].[C-]#[O+].[C-]#[O+].[Cr] | 31.2 µM | > 100 µM | 27.4 µM | > 100 µM | 21.4 µM | > 100 µM | 22.6 µM | 54.3 µM | 20.9 µM | 94.9 µM | 26.8 µM | 91 µM | 14.4 µM | 62.4 µM | 28.4 µM | > 100 µM | 18.6 µM | 66.6 µM | – | –
8 | Cn1c2ccccc2c2c3c(c4c5ccccc5n(CCCCCC#N)c4c21)C(=O)N(O)C3=O | 2.22 µM | 8.4 µM | 2.5 µM | 9.09 µM | 1.21 µM | 3.56 µM | 1.65 µM | 3.36 µM | 0.381 µM | > 100 µM | 2.22 µM | 7.05 µM | 0.419 µM | 6.89 µM | 0.873 µM | 24.2 µM | 1.83 µM | 7.75 µM | 0.609 µM | 4.65 µM
9 | CC(C)[C@]12O[C@H]1[C@@H]1O[C@]13[C@]1(O[C@H]1C[C@H]1c4c(C(=O)c5ccccc5)oc(OC(=O)c5ccccc5)c4CC[C@@]13C)[C@@H]2O | 0.0358 µM | – | – | – | 0.0179 µM | 0.0614 µM | 0.0172 µM | > 38 µM | 0.0204 µM | 15.3 µM | 0.0189 µM | 0.0498 µM | 0.0281 µM | 0.916 µM | 0.0418 µM | 3.42 µM | 0.0196 µM | 0.0497 µM | < 0.0148 µM | 1.06 µM
10 | CC1=C(C)C(=O)C(C(C)C2=C(C)C(=O)C(C)=C(C)C2=O)=C(C)C1=O | 20.9 µM | > 100 µM | 32.6 µM | > 100 µM | 25.2 µM | > 100 µM | – | – | 35.5 µM | > 100 µM | 44.1 µM | > 100 µM | 12.8 µM | 26.4 µM | 17.9 µM | 52 µM | 31.7 µM | 82.7 µM | 7.09 µM | 31.6 µM
11 | C[n+]1c2ccccc2c(NC2CCNCC2)c2[nH]c3ccccc3c21 | 1.53 µM | 5.75 µM | 0.264 µM | 2 µM | 1.35 µM | 5.05 µM | 0.18 µM | 2.64 µM | 0.2 µM | 4.32 µM | 1.35 µM | 3.55 µM | 0.217 µM | 2.04 µM | > 100 µM | > 100 µM | – | 0.46 µM | 0.164 µM | 1.17 µM
12 | NCCOc1ccccn1 | – | > 100 µM | – | > 100 µM | – | > 100 µM | – | > 100 µM | – | > 100 µM | – | > 100 µM | – | > 100 µM | – | > 100 µM | – | > 100 µM | – | > 100 µM
13 | Cc1ccc(/C=C2\CCOC2=O)cc1 | > 100 µM | > 100 µM | > 100 µM | > 100 µM | 11.8 µM | 97.3 µM | > 100 µM | > 100 µM | > 100 µM | > 100 µM | > 100 µM | > 100 µM | > 100 µM | > 100 µM | > 100 µM | > 100 µM | > 100 µM | > 100 µM | – | –
